Measured values from patent US10160719B2, “Pharmaceutical salts” (GRUNENTHAL GMBH, priority 2001, dated 2018).
Where a name gives a salt, the structure may show the parent alone.

Assay: physchem
Conditions: for solubility at 10 min: water
Procedure: In a clear colorless vessel made of transparent material, such as, for example, glass or plastic, 1 ml of ion-free water or a fraction (amount A in ml) thereof is introduced at a temperature of 20° C.
If the amount of salt B added (in mg) completely dissolved, further amounts of the respective salt were slowly added. Each further addition was recorded and the solution behavior observed. As soon as the first turbidity due to undissolved salt was found by observation against a suitable background, stirring was continued for a further 10 minutes. If undissolved constituents subsequently remained, the sum C (in mg) of the amount of substance employed was determined. If a clear solution resulted again on stirring, further small amounts of the respective salt were added and the mixture was in each case stirred again for 10 minutes until a first turbidity remained on account of undissolved salts. The excess amount of undissolved substance was then brought into solution with stirring by addition of small amounts of water. After a clear solution had been obtained, the sum D (in ml) of the amount of water employed was determined. The solubility of the respective salt per 1 ml of water was then calculated according to the following formula: […]
If undissolved salt still remained then, the undissolved portion was brought into solution by addition of small amounts of water with stirring. After obtainment of a clear solution, the sum E (in ml) of the amounts of water employed was determined. The solubility of the respective salt per 1 ml of water was then calculated according to the following formula: […]

[1] = Solubility of the active compound saccharinate in mg/ml of water, saccharinate salt, ion-free water, 20° C.
[2] = Solubility of the active compound salt in mg/ml of water, conventional salt of the active compound (salt indicated in brackets), ion-free water, 20° C.
[3] = saccharinate salt, ion-free water, 20° C.

Molecule	solubility at 10 min [1] [mg/mL]	solubility at 10 min [2] [mg/mL]	also measured
COc1cc(N)cn[n+]1-c1ccccc1 [Amezinium metilsulfate, Amezinium]	–	–	solubility at 10 min (Solubility of the active compound salt in mg/ml of water): ≥ 25 mg/mL
CC[C@@H](c1cccc(O)c1)[C@@H](C)CN(C)C [(−)-(1R,2R)-3-(3-dimethylamino-1-ethyl-2-methylpropyl)phenol]	≥ 31	≥ 261	–
COc1ccc2c3c1O[C@H]1[C@@H](O)C=C[C@H]4[C@@H](C2)N(C)CC[C@@]341 [Codeine phosphate hemihydrate, Codeine]	–	≥ 250	–
CC[C@@](O)(c1cccc(OC)c1)[C@@H](C)CN(C)C [(−)-(2S,3S)-1-dimethylamino-3-(3-methoxyphenyl)-2-methylpentan-3-ol]	≥ 90	≥ 2000	–
COc1cc(N)cn[n+]1-c1ccccc1 [Amezinium saccharinate, Amezinium]	–	–	solubility at 10 min (Solubility of the active compound saccharinate in mg/ml of water): ≥ 8 mg/mL
CC[C@H](c1cccc(O)c1)[C@H](C)CN(C)C.Cl [(+)-(1S,2S)-3-(3-dimethylamino-1-ethyl-2-methylpropyl)phenol hydrochloride]	–	≥ 650	–
CNC[C@H](O)c1cccc(O)c1 [Phenylephrine hydrochloride, Phenylephrine]	–	≥ 1250	–
COc1ccc2c3c1O[C@H]1[C@@H](O)C=C[C@H]4[C@@H](C2)N(C)CC[C@@]341 [Codeine saccharinate, Codeine]	≥ 200	–	–
Benzalkonium [Benzalkonium saccharinate]	–	–	Solubility of the active compound saccharinate in mg/ml of water [3]: <2 mg/ml of water
Benzalkonium [Benzalkonium hydrochloride]	–	–	Solubility of the active compound salt in mg/ml of water (conventional salt of the active compound (salt indicated in brackets), ion-free water, 20° C.): ≥ 500 mg/ml of water
COc1cccc([C@@]2(O)C[C@H](O)CC[C@@H]2CN(C)C)c1 (racemic) [(1RS,3RS,6RS)-6-dimethylaminomethyl-1-(3-methoxy-phenyl)cyclohexane-1,3-diol]	≥ 71	≥ 500	–
COc1cccc([C@@]2(O)CC[C@H](OCc3ccc(F)cc3)C[C@@H]2CN(C)C)c1 [(+)-(1R,2R,4S)-2-dimethylaminomethyl-4-(4-fluorobenzyl-oxy)-1-(3-methoxy-phenyl)cyclohexanol]	–	–	solubility at 10 min (ion-free water, Solubility of the active compound saccharinate in mg/ml of water, saccharinate salt, 20° C.): ≥ 10 mg/mL; solubility at 10 min (ion-free water, Solubility of the active compound salt in mg/ml of water, conventional salt of the active compound (salt indicated in brackets), 20° C.): ≥ 33 mg/mL
CC[C@H](c1cccc(O)c1)[C@H](C)CN(C)C.O=C1NS(=O)(=O)c2ccccc21 [(+)-(1S,2S)-3-(3-dimethylamino-1-ethyl-2-methylpropyl)phenol saccharinate]	–	–	Solubility of the active compound saccharinate in mg/ml of water [3]: ≥ 55 mg/ml of water
CNC[C@H](O)c1cccc(O)c1 [Phenylephrine saccharinate, Phenylephrine]	≥ 380	–	–
CC[C@@](F)(c1cccc(O)c1)[C@@H](C)CN(C)C [(−)-(1S,2S)-3-(3-dimethylamino-1-ethyl-1-fluoro-2-methyl-propyl)phenol]	≥ 130	≥ 568	–
